{"source": "patent US8334267B2", "about": "“Mangiferin calcium salts, the method for its preparation and its use” (Hainan Deze Drug Research Co., Ltd., priority 2007, dated 2012)", "key": {"[1]": {"test": "Stability of mangiferin calcium by preparation route", "format": "physicochemical", "details": "mangiferin calcium made by reacting mangiferin with calcium hydroxide; changes much in 2 hours", "procedure": "3, The water solution of mangiferin calcium which mangiferin reacted with calcium hydroxide is unstable, it changes much in 2 hours. The reaction of mangiferin with other alkaline calcium like calcium bicarbonate or calcium acetate is difficult because they are alkalescent. The productivity is very low.\n5, Mangiferin monosodium (or monopotassium) is come into being first; then mangiferin monosodium (or monopotassium) reacts with water-solubility calcium salt, and mangiferin calcium is come into being. The mangiferin calcium which is obtained by this method is stability, and the productivity is high."}, "[2]": {"test": "Pharmacokinetics of mangiferin and mangiferin calcium after oral administration", "format": "in vivo, rats", "details": "rats, oral 100 mg/kg", "procedure": "1, The Confect of Drug Solution\nMangiferin is suspended in Carboxymethyl cellulose sodium solution which concentration is one percent; the mangiferin concentration is 10 mg/mL, which is sample A.\nAll rats were fasted for 16 hours, free drinking water. The rats are oral administrated separately sample A and sample B, which dose is 100 mg/kg. The rats were taken whole blood in 5 minutes before oral administrated and 15 min, 30 min, 45 min, 60 min, 90 min, 120 min, 180 min, 240 min, 300 min, 360 min, 480 min after oral administrated. Serum is separated from these blood samples.\nSerum Samples are extracted accurately 0.2 ml into centrifuge tubes separately; then 40 μL cold trichloroacetic acid solution which concentration is ten percent is added into centrifuge tubes separately. The samples are whorled 3 minutes; then centrifuged 12000 r/min for 10 minutes, 120 μl the up layer solution are extracted from centrifuge tubes and put into sample bottles separately. All the samples are detected by HPLC.\nApparatus: Angilent 1100 HPLC (American Agilent Co.), include G1312A dual pump G1313A Auto-Sampler.\nChromatographic column: discover ODS column (250 mm×6 mm, 5 μm);\nThe mobile phase: Acetonitrile—0.1% H3PO4 water (13:87 v/v)\nVelocity of flow: 1.0 ml/min\nDetection Wavelength: 254 nm.\nColumn temperature: 30° C."}, "GK rats": {"tested_on": "GK rats", "test": "Efficacy in GK model (plasma glucose, insulin, lipids)", "format": "in vivo, Goto-Kakizaki rats (GK)", "procedure": "Rosiglitazone Hydrochloride tablets were purchased from Zhejiang wanma pharmaceutical Co., Ltd. Mangiferin and mangiferin calcium were suspended with 3% sodium carboxymethyl cellulose before use.\nGoto-Kakizaki rats (GK) (16 weeks age, ♀ ♂) were purchased from Shanghai SLAC laboratory animal Co., Ltd. The animals were kept in IVC cages with temperature (22° C.). There are two rats in each cage.\nExperimental group: GK rats group (n=10); mangiferin groups (20, 40, 80 mg/kg, each 10 rats); mangiferin calcium groups (10, 20, 40 mg/kg, each 10 rats); Rosiglitazone Hydrochloride group [3 mg/kg, n=10]. Test samples or vehicle control was given orally for 30 days. GK rats group were given vehicle.\nThe blood specimens were taken by abdominal aorta at the end of the test. Plasma glucose (GLU), insulin (INS), triglycerides (TG), total cholesterol (TC), high density lipoprotein (HDL), low density lipoprotein (LDL) were determined\n(§1) GLU, TC, TG, HDL and LDL levels were determined using GF-D800 semi-auto chemist which was purchased from Shandong Gaomi Caihong Analytical Instrument Co., Ltd. Insulin: radioimmunoassay (RIA), γ counter counts. insulin RIA Kit was purchased from Shandong Weifang City three-dimensional (3V) Biological company.\nStatistics: The results have been calculated as mean±SD ( x±SD) and comparisons of the data have been done by t-test."}, "STZ rats": {"tested_on": "STZ rats", "test": "Efficacy in STZ model (plasma glucose, insulin, lipids, glucose clamp)", "format": "in vivo, wistar rats", "details": "for Glucose infusion rate: glucose clamp; for FFA / GLU / INS / TG: high fat chow", "procedure": "Rosiglitazone Hydrochloride tablets were purchased from Zhejiang wanma pharmaceutical Co., Ltd. Mangiferin and mangiferin calcium salts were suspended with 3% sodium carboxymethyl cellulose.\nNormal female wistar rats (SPF, 3 months age, 180-200 g) were purchased from Hainan provincial peoples hospital experimental Animal Center. The animals were kept in a room temperature (25˜28° C.) with free access of food and water. A light-dark cycle (6 a.m and 6 p.m) was strictly enforced. High fat chow is composed of 55% basic chow, 2% protein, 16% fat, 27% white sugar.\nModel: After the rats were fasted for 12 hours, the rats are injected 30-35 mg/kg streptozotocin (STZ) solution once by tail vein. STZ solution is prepared to 2% concentration with […], pH 4.4 citrate-sodium citrate buffer before use. The model rats were weighed, taked out tail vein blood, tested blood glucose when the Model is done after 14 days after fasting for 12 hours, then injected 20% glucose solution ([…]) by intraperitoneal, determined blood glucose in 0.5 h, 1 h, 2 h. The rats whose glucose tolerance is abnormal were brought into experiments. Normal wistar rats were fed normal chow, model rats were fed high fat chow.\nExperimental group:normal wistar rats group (n=10); after Diabetes model is succeed, the rats were randomly divided into 7 groups: Diabetes model group (n=10); mangiferin groups (20, 40, 80 mg/kg, each 10 rats); mangiferin calcium groups (10, 20, 40 mg/kg, each 10 rats); Rosiglitazone Hydrochloride group [3 mg/kg, n=10]. Test samples or vehicle control was given orally for 8 weeks. Diabetes model group and normal group were given vehicle.\nDetermination of insulin sensitivity (Glucose infusion rate): Using glucose clamp technique, in accordance with Konglingdong'method ? KONG Ling-dong, ZHU Liang-zheng, SONG Ju-min, etc al. Intervention Effects of Tiaozhi Jiangtang Tablet on Insulin Resistance in Rats with Diabetes Mellitus Type 2.\nDetermination of plasma glucose and lipid: Rats were taken whole blood after killed, then serum was separated, determined plasma glucose (GLU), insulin (INS), triglycerides (TG) and free fatty acids (FFA).\nas §1, with “GLU” for “GLU, TC, TG, HDL”, “TG” for “LDL”, “Ltd. Free fatty acids were determined using copper colorimetric determination. The kits for Determination of free fatty acids were purchased from Nanjing Jiancheng Bioengineering Institute.” for “Ltd.”\nStatistics: The results have been calculated as mean±SD ( x±SD) and compareisons of the data have been done by t-test."}, "[3]": {"test": "Water solubility test in distilled water", "details": "for dissolves in 30 minutes: prepared per example 8", "procedure": "5 mg mangiferin powder which is weighed up accurately is put into 50 ml distilled water, the solution is shaked acutely 30 second every 5 minutes.\n100 mg mangiferin calcium powder which is obtained by the method for preparation of example 8 and weighed up accurately is put into 50 ml distilled water, the solution is shaked acutely 30 second every 5 minutes."}}, "data": [{"compound": "O=c1c2cc(O)c(O)cc2oc2cc([O-])c([C@@H]3O[C@H](CO)[C@@H](O)[C@H](O)[C@H]3O)c(O)c12.O=c1c2cc([O-])c(O)cc2oc2cc(O)c([C@@H]3O[C@H](CO)[C@@H](O)[C@H](O)[C@H]3O)c(O)c12.[Ca+2]", "note": "[Mangiferin calcium, mangiferin calcium]", "values": [{"measurement": "stability of water solution", "setting": "[1]", "result": "unstable"}, {"measurement": "bioavailability", "setting": "[2]; compared with mangiferin", "result": "better than mangiferin"}, {"measurement": "Cmax", "setting": "[2]; serum", "result": "48300 ± 600", "unit": "ng/mL"}, {"measurement": "T1/2β", "setting": "[2]; serum", "result": "1.02 ± 0.128", "unit": "h"}, {"measurement": "GLU", "setting": "GK rats; 10 mg/kg orally for 30 days", "result": "24.06 ± 1.57", "unit": "mmol/L"}, {"measurement": "HDL", "setting": "GK rats; 10 mg/kg orally for 30 days", "result": "0.81 ± 0.07", "unit": "mmol/L"}, {"measurement": "INS", "setting": "GK rats; 10 mg/kg orally for 30 days", "result": "27.48 ± 8.70", "unit": "μ IU/ml"}, {"measurement": "LDL", "setting": "GK rats; 10 mg/kg orally for 30 days", "result": "1.26 ± 0.18", "unit": "mmol/L"}, {"measurement": "TC", "setting": "GK rats; 10 mg/kg orally for 30 days", "result": "2.43 ± 0.21", "unit": "mmol/L"}, {"measurement": "TG", "setting": "GK rats; 10 mg/kg orally for 30 days", "result": "1.79 ± 0.22", "unit": "mmol/L"}, {"measurement": "improvement of TC, HDL and LDL in diabetic GK rats", "setting": "GK rats; 10 mg/kg orally for 30 days", "result": "significantly improves"}, {"measurement": "GLU", "setting": "GK rats; 20 mg/kg orally for 30 days", "result": "23.34 ± 1.67", "unit": "mmol/L"}, {"measurement": "HDL", "setting": "GK rats; 20 mg/kg orally for 30 days", "result": "0.80 ± 0.10", "unit": "mmol/L"}, {"measurement": "INS", "setting": "GK rats; 20 mg/kg orally for 30 days", "result": "20.45 ± 6.36", "unit": "μ IU/ml"}, {"measurement": "LDL", "setting": "GK rats; 20 mg/kg orally for 30 days", "result": "1.31 ± 0.10", "unit": "mmol/L"}, {"measurement": "TC", "setting": "GK rats; 20 mg/kg orally for 30 days", "result": "2.47 ± 0.08", "unit": "mmol/L"}, {"measurement": "TG", "setting": "GK rats; 20 mg/kg orally for 30 days", "result": "1.60 ± 0.41", "unit": "mmol/L"}, {"measurement": "improvement of GLU, TC, TG, HDL and LDL and INS in diabetic GK rats", "setting": "GK rats; 20 mg/kg orally for 30 days", "result": "significantly improves"}, {"measurement": "GLU", "setting": "GK rats; 40 mg/kg orally for 30 days", "result": "23.17 ± 1.58", "unit": "mmol/L"}, {"measurement": "HDL", "setting": "GK rats; 40 mg/kg orally for 30 days", "result": "0.80 ± 0.09", "unit": "mmol/L"}, {"measurement": "INS", "setting": "GK rats; 40 mg/kg orally for 30 days", "result": "16.79 ± 5.37", "unit": "μ IU/ml"}, {"measurement": "LDL", "setting": "GK rats; 40 mg/kg orally for 30 days", "result": "1.37 ± 0.11", "unit": "mmol/L"}, {"measurement": "TC", "setting": "GK rats; 40 mg/kg orally for 30 days", "result": "2.49 ± 0.07", "unit": "mmol/L"}, {"measurement": "TG", "setting": "GK rats; 40 mg/kg orally for 30 days", "result": "1.57 ± 0.39", "unit": "mmol/L"}, {"measurement": "improvement of GLU, TG, FFA, INS, Glucose infusion rate in diabetic rats", "setting": "STZ rats; 10 mg/kg orally for 8 weeks", "result": "significantly improves"}, {"measurement": "Glucose infusion rate", "setting": "STZ rats; 10 mg/kg orally for 8 weeks", "result": "17.56 ± 3.45", "unit": "mg/kg · min"}, {"measurement": "Glucose infusion rate", "setting": "STZ rats; 20 mg/kg orally for 8 weeks", "result": "24.37 ± 3.75", "unit": "mg/kg · min"}, {"measurement": "Glucose infusion rate", "setting": "STZ rats; 40 mg/kg orally for 8 weeks", "result": "26.36 ± 3.58", "unit": "mg/kg · min"}, {"measurement": "FFA", "setting": "STZ rats; 10 mg/kg orally for 8 weeks", "result": "1.54 ± 0.23", "unit": "µmol/L"}, {"measurement": "GLU", "setting": "STZ rats; 10 mg/kg orally for 8 weeks", "result": "8.01 ± 0.32", "unit": "mmol/L"}, {"measurement": "INS", "setting": "STZ rats; 10 mg/kg orally for 8 weeks", "result": "27.63 ± 3.46", "unit": "μ IU/ml"}, {"measurement": "TG", "setting": "STZ rats; 10 mg/kg orally for 8 weeks", "result": "2.49 ± 0.18", "unit": "mmol/L"}, {"measurement": "FFA", "setting": "STZ rats; 20 mg/kg orally for 8 weeks", "result": "1.28 ± 0.14", "unit": "µmol/L"}, {"measurement": "GLU", "setting": "STZ rats; 20 mg/kg orally for 8 weeks", "result": "7.31 ± 0.22", "unit": "mmol/L"}, {"measurement": "INS", "setting": "STZ rats; 20 mg/kg orally for 8 weeks", "result": "23.57 ± 3.68", "unit": "μ IU/ml"}, {"measurement": "TG", "setting": "STZ rats; 20 mg/kg orally for 8 weeks", "result": "1.93 ± 0.36", "unit": "mmol/L"}, {"measurement": "FFA", "setting": "STZ rats; 40 mg/kg orally for 8 weeks", "result": "1.13 ± 0.18", "unit": "µmol/L"}, {"measurement": "GLU", "setting": "STZ rats; 40 mg/kg orally for 8 weeks", "result": "6.91 ± 2.02", "unit": "mmol/L"}, {"measurement": "INS", "setting": "STZ rats; 40 mg/kg orally for 8 weeks", "result": "20.53 ± 4.42", "unit": "μ IU/ml"}, {"measurement": "TG", "setting": "STZ rats; 40 mg/kg orally for 8 weeks", "result": "1.49 ± 0.28", "unit": "mmol/L"}, {"measurement": "dissolves in 30 minutes", "setting": "[3]; 50 mg powder in 50 ml distilled water", "result": "can dissolve"}, {"measurement": "dissolves in 30 minutes", "setting": "[3]; 100 mg powder in 50 ml distilled water", "result": "can not dissolve completely"}, {"measurement": "water solubility", "setting": "[3]; distilled water, shaken 30 second every 5 minutes, 30 minutes", "result": "more than 1 mg/ml"}]}]}
